Values quoted from earlier work, collected in US20050287205A1, “Dietary supplement compositions” (priority 2004, published 2005).

Legend:
[1] = with water, ethyl alcohol, and diethyl ether
[2] = system: spontaneously hypertensive rats
renin = settings: spontaneously hypertensive rats
[3] = system: liver and skeletal muscle glycogen; settings: acetic acid administration to mammals; promotes recovery from fatigue

miscibility [1]: miscible (mixable) in all proportions
SMILES: CC(=O)O [acetic acid]
blood pressure [2]: significantly reduces | renin activity (renin): significantly reduces | glycogen repletion in liver and skeletal muscle [3]: enhances glycogen repletion in liver and skeletal muscle
